6 compounds from patent US20260337184A1, “NOVEL SUBSTITUTED 2-CARBONYL-BENZOTHIOPHENE-6-CARBOXYLIC ACID DERIVATIVES, PROCESSES FOR THEIR PREPARATION AND THERAPEUTIC USES THEREOF” (SANOFI, priority 2022, published 2026) can be followed below.

The structures appear in SMILES notation.

The target of the assay is T1, estrogen receptor (ERα) (Homo sapiens, UniProt P03372).
T1 construct: endogenous in cells; host or cells: MCF7 cells (ATCC)
T1 sequence (P03372 1-595): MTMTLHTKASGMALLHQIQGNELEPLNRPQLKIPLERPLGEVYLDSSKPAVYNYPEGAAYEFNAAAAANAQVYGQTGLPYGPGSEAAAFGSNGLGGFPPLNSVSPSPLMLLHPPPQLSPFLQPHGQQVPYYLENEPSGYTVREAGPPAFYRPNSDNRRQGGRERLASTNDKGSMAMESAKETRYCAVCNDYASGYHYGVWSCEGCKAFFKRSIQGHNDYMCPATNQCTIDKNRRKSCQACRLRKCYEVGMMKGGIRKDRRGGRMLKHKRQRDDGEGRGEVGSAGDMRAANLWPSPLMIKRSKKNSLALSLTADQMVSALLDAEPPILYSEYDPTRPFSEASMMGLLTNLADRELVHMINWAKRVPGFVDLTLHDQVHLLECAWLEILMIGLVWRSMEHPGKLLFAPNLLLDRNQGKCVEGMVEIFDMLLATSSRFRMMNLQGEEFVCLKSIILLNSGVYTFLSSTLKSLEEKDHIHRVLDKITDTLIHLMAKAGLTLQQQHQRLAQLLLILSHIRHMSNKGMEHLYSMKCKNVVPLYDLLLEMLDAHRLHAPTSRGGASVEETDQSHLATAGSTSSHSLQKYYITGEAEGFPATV
In words: Estrogen receptor degradation activity (ERα in cell western assay, MCF7 breast cancer cells). Type of assay: cell-based. As to conditions: for percent ER degradation at 0.3 µM: 4 hours, relative to fulvestrant (0.1 μM) and DMSO; for DC50: concentration which degrades 50% of the estrogen receptor, 4 hours post compound addition, read-out: Degradation IC50. As for the experimental part: Test: Estrogen Receptor Degradation Activity
Said test involves measuring the in vitro degradation activity of the compounds of the Table 1a.
The measurements of the degradation activities were made using a breast cancer cell ERα in cell western assay as described hereunder.
MCF7 cells (ATCC) were seeded in 384 wells microplate (collagen coated) at a concentration of 10000 cells/30 μL per well in red phenol free MEM alpha medium (invitrogen) containing 5% charcoal dextran striped FBS. The following day, 9 points serial 1:5 dilution of each compound was added to the cells in 2.5 μL at final concentrations ranging from 0.3-0.0000018 μM (in table 2), or 0.1 μM for fulvestrant (using as positive control). At 4 hours post compound addition the cells were fixed by adding 25 μL of formalin (final concentration 5% formalin containing 0.1% triton) for 10 minutes at room temperature and then washed twice with PBS. Then, 50 μL of LI-COR blocking buffer containing 0.1% Triton was added to plate for 30 minutes at room temperature. LI-COR blocking buffer was removed and cells were incubated overnight at cold room with 50 μL anti-ER rabbit monoclonal antibody (Thermo scientific MA1-39540) diluted at 1:1000 in LI-COR blocking buffer containing 0.1% tween-20. Wells which were treated with blocking buffer but no antibody were used as background control. Wells were washed twice with PBS (0.1% tween-20) and incubated at 37° C. for 60 minutes in LI-COR (0.1% tween-20) containing goat anti-rabbit antibody Alexa 488 (1:1000) and Syto-64 a DNA dye (2 μM final concentration). Cells were then washed 3 times in PBS and scanned in ACUMEN explorer (TTP-Labtech). Integrated intensities in the green fluorescence and red fluorescence were measured to determine the levels of ERα and DNA respectively.
The degradation activity with respect to estrogen receptors in this test is given by the concentration which degrades 50% of the estrogen receptor (or IC50) in nM.
The % of ERα levels decrease were determined as follows: % inhibition=100*(1−(sample−fulvestrant: DMSO−fulvestrant)).

Turning to `Cc1cc(F)cc(C)c1C(=O)c1sc2cc(C(=O)O)ccc2c1Oc1ccc(NC2CN(CCCF)C2)cc1` [Compound 1, 2-(4-fluoro-2,6-dimethylbenzoyl)-3-(4-((1-(3-fluoropropyl)azetidin-3-yl)amino)phenoxy)benzo[b]thiophene-6-carboxylic acid], the percent ER degradation at 0.3 µM was 91% and the DC50 was found to be 5 nM.

Consider `Cc1cc(F)cc(C)c1C(=O)c1sc2cc(C(=O)O)ccc2c1Oc1ccc(OC2CN(CCCF)C2)cc1` [Compound 2, 2-(4-fluoro-2,6-dimethylbenzoyl)-3-(4-((1-(3-fluoropropyl)azetidin-3-yl)oxy)phenoxy)benzo[b]thiophene-6-carboxylic acid], for which the percent ER degradation at 0.3 µM turned out to be 92% and the DC50 came out at 5 nM.

With `Cc1cc(F)cc(C)c1C(=O)c1sc2cc(C(=O)O)ccc2c1Oc1ccc(CC2CN(CCCF)C2)cc1` [Compound 3, 2-(4-fluoro-2,6-dimethylbenzoyl)-3-(4-((1-(3-fluoropropyl)azetidin-3-yl)methyl)phenoxy)benzo[b]thiophene-6-carboxylic acid], the percent ER degradation at 0.3 µM turned out to be 85% and the DC50 turned out to be 3 nM.

On to `Cc1cc(F)cc(C)c1C(=O)c1sc2cc(C(=O)O)ccc2c1Oc1ccc(C=C2CN(CCCF)C2)cc1` [Compound 4, 2-(4-fluoro-2,6-dimethylbenzoyl)-3-(4-((1-(3-fluoropropyl)azetidin-3-ylidene)methyl)phenoxy)benzo[b]thiophene-6-carboxylic acid], for which the percent ER degradation at 0.3 µM worked out at 98% and the DC50 turned out to be 0.3 nM.

For `Cc1cc(F)cc(C)c1C(=O)c1sc2cc(C(=O)O)ccc2c1Oc1ccc(O[C@H]2CCN(CCCF)C2)cc1` [Compound 5, (S)-2-(4-fluoro-2,6-dimethylbenzoyl)-3-(4-((1-(3-fluoropropyl)pyrrolidin-3-yl)oxy)phenoxy)benzo[b]thiophene-6-carboxylic acid], the percent ER degradation at 0.3 µM was 91% and the DC50 was determined as 12 nM.

For `Cc1cc(F)cc(C)c1C(=O)c1sc2cc(C(=O)O)ccc2c1Oc1ccc(N[C@H]2CCN(CCCF)C2)cc1` [Compound 6, (S)-2-(4-fluoro-2,6-dimethylbenzoyl)-3-(4-((1-(3-fluoropropyl)pyrrolidin-3-yl)amino)phenoxy)benzo[b]thiophene-6-carboxylic acid], the percent ER degradation at 0.3 µM was found to be 84% and the DC50 came out at 3 nM.
